Assay results reported in patent publication US12077555B2, “STAT degraders and uses thereof” (Kymera Therapeutics, Inc., priority 2019, dated 2024).

Target: STAT3 (Homo sapiens, UniProt P40763)
Test: STAT3 HiBiT degradation assay in transfected A549 cells
Type: cell-based
Parameters: expressed in transfected cells; host or cells: A549
Details: A549, 24 h; read-out: STAT3 HiBiT A549 degradation 24 h: Average external-Abs DC50
Outline: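 Transfected A549 cells (~2000/well) plated 24 h, then treated 24 h at 37 °C, 5% CO2 with a 3-fold, 10-point compound dilution. HiBiT lytic luminescence read after 10 min at room temperature; remaining STAT3 normalized to negative and positive controls, four-parameter fit. DC50 binned A <0.01, B 0.01–0.1, C 0.1–1.0, D >1.0 µM.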

STAT3, sequence (P40763 whole entry): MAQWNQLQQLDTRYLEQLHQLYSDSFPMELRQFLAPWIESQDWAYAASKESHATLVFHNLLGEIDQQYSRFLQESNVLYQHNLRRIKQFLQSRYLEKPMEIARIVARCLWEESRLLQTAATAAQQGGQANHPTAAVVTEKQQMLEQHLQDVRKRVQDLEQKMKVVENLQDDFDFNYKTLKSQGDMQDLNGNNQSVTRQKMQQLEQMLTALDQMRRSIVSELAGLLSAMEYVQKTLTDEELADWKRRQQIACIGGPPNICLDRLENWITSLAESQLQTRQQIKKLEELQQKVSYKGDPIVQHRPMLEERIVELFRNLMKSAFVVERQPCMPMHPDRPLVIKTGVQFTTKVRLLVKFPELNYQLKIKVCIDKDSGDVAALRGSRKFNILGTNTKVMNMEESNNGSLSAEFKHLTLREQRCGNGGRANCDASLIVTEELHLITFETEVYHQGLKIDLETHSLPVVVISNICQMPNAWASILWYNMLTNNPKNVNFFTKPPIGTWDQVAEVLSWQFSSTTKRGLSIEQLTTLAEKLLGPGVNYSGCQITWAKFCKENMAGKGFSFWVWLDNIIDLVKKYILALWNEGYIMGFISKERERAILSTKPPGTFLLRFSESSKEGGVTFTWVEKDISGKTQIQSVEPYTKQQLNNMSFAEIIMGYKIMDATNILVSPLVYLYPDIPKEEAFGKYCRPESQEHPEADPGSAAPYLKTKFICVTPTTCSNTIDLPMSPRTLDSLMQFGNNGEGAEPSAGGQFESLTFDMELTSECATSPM

SMILES | DC50 [nM]
Cc1ncsc1-c1ccc([C@H](C)NC(=O)[C@@H]2C[C@@H](O)CN2C(=O)[C@@H](NC(=O)CCCCCc2cccc(NC[C@H](CCC(N)=O)NC(=O)[C@@H]3Cc4cccc5c4N3C(=O)[C@@H](NC(=O)c3cc4cc(C(=O)P(=O)(O)O)ccc4[nH]3)CC5)c2F)C(C)(C)C)cc1 [Compound I-265, diammonium 2-[[(2S,11S)-2-[(4-carbamoyl-1-[[2-fluoro-3-(5-[[(2S)-1-[(2S,4R)-4-hydroxy-2-[[(1S)-1-[4-(4-methyl-1,3-thiazol-5-yl)phenyl]ethyl]carbamoyl]pyrrolidin-1-yl]-3,3-dimethyl-1-oxobutan-2-yl]carbamoyl]pentyl)phenyl]amino]butan-2-yl)carbamoyl]-12-oxo-1-azatricyclo[6.4.1.0^[4,13]]trideca-4(13),5,7-trien-11-yl]carbamoyl]-1H-indole-5-carbonylphosphonate] | 10 to 100
Cc1cc(CCCCCC(=O)N[C@H](C(=O)N2C[C@H](O)C[C@H]2C(=O)N[C@@H](C)c2ccc(-c3scnc3C)cc2)C(C)(C)C)c(F)c(OC[C@H](CCC(N)=O)NC(=O)[C@@H]2Cc3cccc4c3N2C(=O)[C@@H](NC(=O)c2cc3cc(C(=O)P(=O)(O)O)ccc3[nH]2)CC4)c1 [Compound I-266, 2-[[(2S,11S)-2-[[(2S)-4-carbamoyl-1-[2-fluoro-3-(5-[[(2S)-1-[(2S,4R)-4-hydroxy-2-[[(1S)-1-[4-(4-methyl-1,3-thiazol-5-yl)phenyl]ethyl]carbamoyl]pyrrolidin-1-yl]-3,3-dimethyl-1-oxobutan-2-yl]carbamoyl]pentyl)-5-methylphenoxy]butan-2-yl]carbamoyl]-12-oxo-1-azatricyclo[6.4.1.[4,13]]trideca-4(13),5,7-trien-11-yl]carbamoyl]-1H-indole-5-carbonylphosphonic acid] | < 10
Cc1ncsc1-c1ccc([C@H](C)NC(=O)[C@@H]2C[C@@H](O)CN2C(=O)[C@@H](NC(=O)CCCCCc2cc(F)cc(OC[C@H](CCC(N)=O)NC(=O)[C@@H]3Cc4cccc5c4N3C(=O)[C@@H](NC(=O)c3cc4cc(C(=O)P(=O)(O)O)ccc4[nH]3)CC5)c2F)C(C)(C)C)cc1 [Compound I-267] | < 10
Cc1ncsc1-c1ccc([C@H](C)NC(=O)[C@@H]2C[C@@H](O)CN2C(=O)[C@@H](NC(=O)CCCCCc2ccnc([C@H](CCC(N)=O)NC(=O)[C@@H]3Cc4cccc5c4N3C(=O)[C@@H](NC(=O)c3cc4cc(C(=O)P(=O)(O)O)ccc4[nH]3)CC5)c2)C(C)(C)C)cc1 [Compound I-268, 2-[[(2S,11S)-2-[[(1S)-3-carbamoyl-1-[4-(5-[[(2S)-1-[(2S,4R)-4-hydroxy-2-[[(1S)-1-[4-(4-methyl-1,3-thiazol-5-yl)phenyl]ethyl]carbamoyl]pyrrolidin-1-yl]-3,3-dimethyl-1-oxobutan-2-yl]carbamoyl]pentyl)pyridin-2-yl]propyl]carbamoyl]-12-oxo-1-azatricyclo [6.4.1.0^[4,13]]trideca-4(13),5,7-trien-11-yl]carbamoyl]-1H-indole-5-carbonylphosphonic acid] | 100 to 1000
Cn1c(=O)n(C2CCC(=O)NC2=O)c2ccc(CCCCCCOc3ccc4c5c3CC[C@H](NC(=O)c3cc6cc(C(=O)P(=O)(O)O)ccc6[nH]3)C(=O)N5[C@H](C(=O)N[C@@H](CCC(N)=O)C(=O)NC(c3ccccc3)c3ccccc3)C4)cc21 (stereo partly drawn) [Compound I-269, 2-[[(2S,11S)-2-[[(1S)-3-Carbamoyl-1-(diphenylmethylcarbamoyl)propyl]carbamoyl]-7-([6-[1-(2,6-dioxopiperidin-3-yl)-3-methyl-2-oxo-1,3-benzodiazol-5-yl]hexyl]oxy)-12-oxo-1-azatricyclo[6.4.1.0^[4,13]]trideca-4(13),5,7-trien-11-yl]carbamoyl]-1H-indole-5-carbonylphosphonic acid] | > 1000
Cn1c(=O)n(C2CCC(=O)NC2=O)c2ccc(CCCCOc3ccc4c5c3CC[C@H](NC(=O)c3cc6cc(C(=O)P(=O)(O)O)ccc6[nH]3)C(=O)N5[C@H](C(=O)N[C@@H](CCC(N)=O)C(=O)NC(c3ccccc3)c3ccccc3)C4)cc21 (stereo partly drawn) [Compound I-270, 2-[[(2S,11S)-2-[[(1S)-3-carbamoyl-1-(diphenylmethylcarbamoyl)propyl]carbamoyl]-7-[4-[1-(2,6-dioxopiperidin-3-yl)-3-methyl-2-oxo-1,3-benzodiazol-5-yl]butoxy]-12-oxo-1-azatricyclo[6.4.1.0^[4,13]]trideca-4(13),5,7-trien-11-yl]carbamoyl]-1H-indole-5-carbonylphosphonic acid] | 100 to 1000
Cn1c(=O)n(C2CCC(=O)NC2=O)c2ccc([C@H]3CC[C@H](CCCC(=O)N4CC[C@H]5CC[C@@H](C(=O)NC(CCC(N)=O)C(=O)NC(c6ccccc6)c6ccccc6)N5C[C@@H](NC(=O)c5cc6cc(C(=O)P(=O)(O)O)ccc6[nH]5)C4)CC3)cc21 (stereo partly shown) [Compound I-271] | 100 to 1000
CC(=O)O[C@@H]1C[C@@H](C(=O)N[C@@H](C)c2ccc(-c3scnc3C)cc2)N(C(=O)[C@@H](NC(=O)CCCCCc2cccc(OC[C@H](CCC(N)=O)NC(=O)[C@@H]3Cc4cccc5c4N3C(=O)[C@@H](NC(=O)c3cc4cc(C(=O)P(=O)(O)O)ccc4[nH]3)CC5)c2F)C(C)(C)C)C1 [Compound I-272] | < 10
Cn1c(=O)n(C2CCC(=O)NC2=O)c2ccc([C@H]3CC[C@@H](CCC(=O)N4CC[C@H]5CC[C@@H](C(=O)N[C@@H](CCC(N)=O)C(=O)NC(c6ccccc6)c6ccccc6)N5C(=O)[C@@H](NC(=O)c5cc6cc(C(=O)P(=O)(O)O)ccc6[nH]5)C4)CC3)cc21 (stereo partly drawn) [Compound I-273, 2-[[(5S,8S,10aR)-8-[[(1S)-3-carbamoyl-1-(diphenylmethylcarbamoyl)propyl]carbamoyl]-6-oxo-3-[3-[(1s,4s)-4-[1-(2,6-dioxopiperidin-3-yl)-3-methyl-2-oxo-1,3-benzodiazol-5-yl]cyclohexyl]propanoyl]-octahydropyrrolo[1,2-a][1,5]diazocin-5-yl]carbamoyl]-1H-indole-5-carbonylphosphonic acid] | 100 to 1000
Cn1c(=O)n(C2CCC(=O)NC2=O)c2ccc([C@H]3CC[C@@H](CCCC(=O)N4CC[C@H]5CC[C@@H](C(=O)N[C@@H](CCC(N)=O)C(=O)NC(c6ccccc6)c6ccccc6)N5C(=O)[C@@H](NC(=O)c5cc6cc(C(=O)P(=O)(O)O)ccc6[nH]5)C4)CC3)cc21 (stereo partly drawn) [Compound I-274, 2-[[(5S,8S,10aR)-8-[[(1S)-3-carbamoyl-1-(diphenylmethylcarbamoyl)propyl]carbamoyl]-6-oxo-3-[4-[(1s,4r)-4-[1-(2,6-dioxopiperidin-3-yl)-3-methyl-2-oxo-1,3-benzodiazol-5-yl]cyclohexyl]butanoyl]-octahydropyrrolo[1,2-a][1,5]diazocin-5-yl]carbamoyl]-1H-indole-5-carbonylphosphonic acid] | 100 to 1000
